US4689340A, “Trihaloimidazole insecticide” (Sumitomo Chemical Company, Limited, priority 1985, dated 1987)
Like-named read-outs stand apart in the source and are kept apart here.

Legend:
[1] = tested on: German cockroach (Blattela germanica); test: Oil spray direct spray knock-down test, susceptible strain (Test Example 5); assay type: in vivo; details: 0.6 ml of 0.1% oil spray
Text: (§1) […] of the present compound (1), 2 parts of xylene and 97.8 parts of kerosene are mixed to obtain an oil spray.
(§2) Two groups of five male and five femlae adults per group of German cockroach (Blattela germanica), one group belonging to a susceptible strain and the other belonging to a strain low susceptible to pyrethroids,were liberated in a polyethylene cup of 9 cm in diameter thinly coated with vaseline at the inside surface. After covering the cup with a 16-mesh nylon gauze, the cup was placed on the bottom of a glass cylinder (inside diameter, 10 cm; height, 37 cm). Thereafter 0.6 ml of each of the 0.1% oil sprays of the present compounds and the control, prepared according to Formulation example 1, was directly sprayed onto the adults by means of a spray gun under 0.6 atmospheric pressure from the top of the cylinder. The number of knocked-down insects with the lapse of time was counted to obtain KT50 value (50% knocked-down time) (two replications).

cockroach = test: Insecticidal activity as cockroach-controlling insecticides (general statement); assay type: in vivo; details: among the listed cockroach-controlling compounds
[2] = tested on: smoky brown cockroach (Periplaneta fuliginosa); test: Topical application insecticidal test on smoky brown cockroach (Test Example 2); assay type: in vivo; details: Validiblatta fuliginosa, 48 h
Experimental: (§3) The present compounds and the control were each diluted with acetone and topically applied to the ventral thorax of the male adults of smoky brown cockroach (Periplaneta fuliginosa) at a rate of 10μg a.i./adult. After application, the adults were bred on bait and water in a polyethylene cup. After two days, the number of the dead and alive was examined to obtain a mortality (5 adults per group; two replications).

[3] = tested on: German cockroaches (Blattella germanica); test: Heating fumigant test in (183 cm)^3 Peet Grady's chamber (Test Example 4); assay type: in vivo, strain low susceptible to pyrethroids; details: for mortality at 10 mg/m3, 10 mg/m3: Blattella germanica, 72 h
Experimental: (§4) One hundred mg of each of the present compounds (1) to (7) is dissolved in a proper amount of acetone, and a porous ceramic plate of 4.0 cm×4.0cm×1.2 cm (thick) is impregnated with this solution to obtain the heating fumigant of each compound.
At the bottom of a (183 cm)^3 Peet Grady's chamber (6.1 m^3) were placed three polyethylene cups (inside diameter, 10 cm; height, 8 cm) coated with butter at the inside surface, and 20 adult German cockroaches (10 males and 10 females) (Blattella germanica), which belong to a strain low susceptible to pyrethroids were liberated in each cup. An electric heater was set at the center of the bottom of the chamber, and each of the porous ceramic plates impregnated with the present compounds and the control according to Formulation example 8 (61 mg/plate: 10 mg/m^3), was placed thereon. The plate was heated to about 200° C. by applying current for 70 minutes. The number of knocked-down insects with the lapse of time was examined to obtain KT50 value (50% knocked-downtime). Eighty minutes after current application was started, the cups containing the test insects were taken out of the chamber, and the test insects were bred on water and bait. After three days, the number of the dead and alive was examined to obtain a mortality.

[4] = tested on: German cockroach (Blattella germanica); test: Insecticidal activity test to German cockroach, topical application (Test Example 1-2); assay type: in vivo, strain low susceptible to pyrethroids; details: 48 h, read-out: Insecticidal activity on German cockroaches LD50 value (b)
Experimental: (§5) The present compounds and the control were each diluted with corn oil to prescribed concentrations, and the dilute solutions obtained were forcedly administered to the stomach of six-week old male mice of ICR strain weighing 24 to 31 g, to which no food had been given for about 20 hours, at a rate of 0.1 ml/10 g of body weight. […] The number of the dead and alive was examined by seven day's observation to obtain LD50 value (50% lethal dosage) (5 mice per group). 1-2 Insecticidal activity test to German cockroach
as §3, with “acetone to prescribed concentrations” for “acetone”, “German” for “smoky brown”, “(Blattella germanica) which belong to a strain low susceptible to pyrethroids,” for “(Periplaneta fuliginosa)”, “1 μl/adult.” for “10μg a.i./adult.”, “LD50 value (10” for “a mortality (5”

[5] = Acute Oral Toxicity Test to Mice (Test Example 1-1); details: mouse, in vivo; for selectivity ratio: po, mice oral LD50 (a) / German cockroach LD50 (b), read-out: Safety coefficient (a)/(b); for LD50 at 168 h: oral (stomach), corn oil, male ICR mice, 7 days' observation
Experimental: 1-1 Acute Oral Toxicity Test to Mice
as §5
The results of the acute oral toxicity test to mice and insecticidal activity test to German cockroaches on the test compounds are shown in Table 3. It is apparent from the table that the present compounds have the characteristics that the toxicity to the warm-blooded animal is low and the insecticidal activity on the insect pest is high. In order to make this characteristics clearer, the following safety coefficient was obtained from the test results. [formula]

[6] = tested on: German cockroach (Blattella germanica); test: Heating fumigant test in (70 cm)^3 glass chamber (Test Example 3); assay type: in vivo, strain low susceptible to pyrethroids; details: for mortality at 40 mg/m3, 40 mg/m3: Blattella germanica, 48 h
Experimental: as §4
Four polyethylene cups (inside diameter, 10 cm; height, 8 cm) coated with butter at the inside surface were set at the four corners, respectively, of the bottom of a (70 cm)^3 glass chamber (0.34 m^3). Ten male adults per group of German cockroach (Blattella germanica) which belongs to a strain low susceptible to pyrethroids, were liberated in each of two polyethylene cups, and 10 female adults per group of the insect were liberated in each of the remaining two. An electric heater was set at the center of the bottom of the glass chamber, and each of the porous ceramic plates impregnating the present compounds and the control according to Formulation example 8 (13.7 mg/plate: 40 mg/m^3), was placed thereon. The plate was heated to about 200° C. by applying current for 20 minutes. The number of knocked-down insects with the lapse of time was examined to obtain KT50 (50% knocked-down time). Eighty minutes after current application was started, the cups containing the test insects were taken out of the chamber, and the test insects were bred on water and bait. After two days, the number of the dead and alive was examined to obtain a mortality.

[7] = tested on: German cockroach (Blattela germanica); test: Oil spray direct spray knock-down test, strain low susceptible to pyrethroids (Test Example 5); assay type: in vivo; details: 0.6 ml of 0.1% oil spray
Text: as §1, §2

[8] = ceramic plate heating fumigant, 61 mg/plate: 10 mg/m^3, 6.1 m^3 chamber
[9] = ceramic plate heating fumigant, 13.7 mg/plate: 40 mg/m^3, 0.34 m^3 chamber
[10] = ceramic plate heating fumigant, 61 mg/plate: 10 mg/m^3, 6.1 m^3 chamber, after three days, read-out: Mortality (%)
[11] = ceramic plate heating fumigant, 13.7 mg/plate: 40 mg/m^3, 0.34 m^3 chamber, after two days, read-out: Mortality (%)

Compound | Susceptible strain KT50 value [1] [min] | insecticidal activity (in words) (cockroach) | mortality at 0.01 mg [2] [%] | mortality at 10 mg/m3, 10 mg/m3 [3] [%] | KT50 value (50% knocked-down time) [3, 8] [min] | LD50 [4] [mg/kg] | selectivity ratio [5] | LD50 at 168 h [5] [mg/kg] | mortality at 40 mg/m3, 40 mg/m3 [6] [%] | KT50 value (50% knocked-down time) [6, 9] [min] | Strain low susceptible to pyrethroids KT50 value [7] | mortality at 10 mg/m3, 10 mg/m3 [3, 10] [%] | mortality at 40 mg/m3, 40 mg/m3 [6, 11] [%] | mortality at 0.01 mg ([2]; 10μg a.i./adult, male adults, after two days, read-out: Mortality (%)) [%]
Clc1nc(Cl)n(COCCCCBr)c1Cl [(1), 1-(4-bromobutoxymethyl)-2,4,5-trichloroimidazole] | 1.1 | most superior insecticidal activity | 80 | 100 | 38 | 6.4 | > 50 | > 300 | 100 | 28 | 0.70 min |  |  | 
ClCCCCOCn1c(Cl)nc(Cl)c1Cl [(2), 1-(4-chlorobutoxymethyl)-2,4,5-trichloroimidazole] |  |  | 100 | 80 | 63 | 6.2 | > 50 | > 300 | 100 | 41 |  |  |  | 
BrCCCCOCn1c(Br)nc(Br)c1Br [(3), 1-(4-bromobutoxymethyl)-2,4,5-tribromoimidazole] | 1.1 |  |  |  | 77 |  |  |  |  | 45 | 1.2 min | 90 | 100 | 
ClCCCCOCn1c(Br)nc(Br)c1Br [(4), 1-(4-chlorobutoxymethyl)-2,4,5-tribromoimidazole] | 2.1 |  |  |  |  |  |  |  |  | 58 | ≈ 0.5 minute |  | 90 | 
Clc1nc(Cl)n(COCCCCCBr)c1Cl [(5)] |  |  |  |  |  |  |  |  |  | 68 |  |  | 87.5 | 
Clc1nc(Cl)n(COCCCCCCBr)c1Cl [(6), 1-(6-bromohexyloxymethyl)-2,4,5-trichloroimidazole] |  |  |  |  | 41 |  |  |  |  |  |  | 95 |  | 
BrCCCCCCOCn1c(Br)nc(Br)c1Br [(7), 1-(6-bromohexyloxymethyl)-2,4,5-tribromoimidazole] | 2.3 |  |  |  |  |  |  |  |  | 65 | 0.72 min |  | 92.5 | 
CCCCOCn1c(Cl)nc(Cl)c1Cl [(A)] | > 20 |  |  |  | > 80 | > 10 |  |  |  |  | > 20 min | 8 |  | 
CCCCCOCn1c(Cl)nc(Cl)c1Cl [(B)] | > 20 |  |  |  | > 80 | > 20 |  |  |  | > 80 | > 20 min | 0 | 47.5 | 40
BrCCOCn1c(Br)nc(Br)c1Br [(C)] | > 20 |  |  | 40 | > 80 | 7 | 16 | 110 |  |  | ≥ 20 min |  |  | 
ClCCOCn1c(Br)nc(Br)c1Br [(D)] | > 20 |  |  | 3 | > 80 | 9.4 | 18 | 170 |  |  | ≈ 20 minute |  |  | 
CNC(=O)Oc1ccccc1OC(C)C [(E), Propoxur] | 6.9 |  |  |  | > 80 | 7 | 5.6 | 39 |  | > 80 | 10 min | 0 | 0 | 
